Experimental findings from patent US11090364B2, “Conjugates of a pharmaceutical agent and a moiety capable of binding to a glucose sensing protein” (SANOFI, priority 2016, dated 2021) are described below.

Broadly, the inhibition is the share of the control response that was lost under treatment. High values mean strong suppression, low ones little suppression.

This assay relates to HepG2 cells. The assay can be described thus: HepG2 assay: 14C 2-deoxy-D-glucose transport into HepG2 cells. Type of assay: cell-based. The note with it: Homo sapiens, test compound 100 μM. The method, then:
For measurement of ^14C 2-deoxy-D-glucose transport into HepG2 cells, cells were seeded in collagen treated 96-well plates (Cytostar-T Plates Perkin Elmer, 40.000 cells/200 μ/well) in medium complete (MEM W/GLUT-I, EARLES (Gibco #41090) /NEAA/PS/10% FCS) and grown for 48 hours. After starvation for 2 hours with MEM W/GLUT-I, EARLES (Gibco #41090)/NEAA/no serum 100 μl/well and washing twice with 200 μL KRB buffer, cells were stimulated in a dose dependent manner by adding 20 μL of test compound dilution 0-750 μM (7.5 times higher concentration than final) or 20 μL of 188 μM Cytochalasin B solution as negative control, to 80 μL KRB buffer and incubated for 30 minutes. After compound stimulation, the transport of ^14C 2-deoxy-D-glucose was started by adding of 50 μL ^14C 2-deoxy-D-glucose solution (250 μM 2-deoxy-D-glucose cold and 15 μM ^14C 2-deoxy-D-glucose 0.13 μCi/well) for 20 minutes. Transport was stopped by adding 50 μL/well 40 μM Cytochalasin B solution. Plates were measured in a 96-well Wallac Microbeta device. The cpm (counts per minute) values were used to determine the % inhibition values for the test compounds within each experiment, which then are averaged over the number of experiments performed.
Turning to `COc1ccc(N2CCN(CC3=C[C@H](OC(C)=O)[C@@H](OC(C)=O)[C@H](OC(C)=O)O3)CC2)cc1` [Example 50, [(2S,3R,4S)-2,3-Diacetoxy-6-[[4-(4-methoxyphenyl)piperazin-1-yl]methyl]-3,4-dihydro-2H-pyran-4-yl] acetate], the inhibition at 100 µM worked out at 13.8%.
`CC(=O)O[C@@H]1OC(CN2CCN(c3ccc(Br)cc3)CC2)=C[C@H](OC(C)=O)[C@H]1OC(C)=O` [Example 53, [(2S,3R,4S)-2,3-Diacetoxy-6-[[4-(4-bromophenyl)piperazin-1-yl]methyl]-3,4-dihydro-2H-pyran-4-yl] acetate]: at 100 µM the inhibition was 23.9%.
In turn, `CC(=O)O[C@@H]1O[C@H](C(=O)N2CCN(C3CCCCC3)CC2)[C@@H](OC(C)=O)[C@H](OC(C)=O)[C@H]1OC(C)=O` [Example 9, [(2S,3R,4S,5S,6S)-2,3,5-Triacetoxy-6-(4-cyclohexylpiperazine-1-carbonyl)tetrahydropyran-4-yl] acetate] returned an inhibition at 100 µM of 5.11%.
For `OC[C@H]1OC(O)[C@H](n2cc(CC3CCCCC3)nn2)[C@@H](O)[C@@H]1O` (stereo partly drawn) [Example 64, (3R,4R,5S,6R)-3-[4-(Cyclohexylmethyl)triazol-1-yl]-6-(hydroxymethyl)tetrahydropyran-2,4,5-triol], the inhibition at 100 µM came to 8.86%.
Take `OC[C@H]1OC(O)[C@H](n2cc(CCCCl)nn2)[C@@H](O)[C@@H]1O` (stereo partly drawn) [Example 66, (3R,4R,5S,6R)-3-[4-(3-Chloropropyl)triazol-1-yl]-6-(hydroxymethyl)tetrahydropyran-2,4,5-triol]: 100 µM produced 5.12% inhibition.
Turning to `COc1cccc(N2CCN(CC3=C[C@H](OC(C)=O)[C@@H](OC(C)=O)[C@H](OC(C)=O)O3)CC2)c1` [Example 51, [(2S,3R,4S)-2,3-Diacetoxy-6-[[4-(3-methoxyphenyl)piperazin-1-yl]methyl]-3,4-dihydro-2H-pyran-4-yl] acetate], the inhibition at 100 µM is 17.9%.
Then `CN(Cc1ccccc1)Cc1cn([C@H]2C(O)O[C@H](CO)[C@@H](O)[C@@H]2O)nn1` (stereo partly drawn) [Example 59, (3R,4R,5S,6R)-3-[4-[[Benzyl(methyl)amino]methyl]triazol-1-yl]-6-(hydroxymethyl)tetrahydropyran-2,4,5-triol], with 7.56%; and `OC[C@H]1OC(O)[C@H](n2cc(CCCc3ccccc3)nn2)[C@@H](O)[C@@H]1O` (stereo partly drawn) [Example 57, (3R,4R,5S,6R)-6-(Hydroxymethyl)-3-[4-(3-phenylpropyl)triazol-1-yl]tetrahydropyran-2,4,5-triol], with 24.1%; and `O=C([C@H]1OC(O)[C@H](O)[C@@H](O)[C@@H]1O)N1CCN(c2ccc(Br)cc2)CC1` (stereo partly drawn) [Example 36, [4-(4-Bromophenyl)piperazin-1-yl]-[(2S,3S,4S,5R)-3,4,5,6-tetrahydroxytetrahydropyran-2-yl]methanone], with 20.6%.
The same measure for `OC1O[C@H](Cn2cc(-c3ccccc3)nn2)[C@@H](O)[C@H](O)[C@H]1O` (stereo partly drawn) [Example 69, (3R,4S,5S,6R)-6-[(4-Phenyltriazol-1-yl)methyl]tetrahydropyran-2,3,4,5-tetrol]: 6.14%; for `CN1CCN(C(=O)[C@H]2OC(O)[C@H](O)[C@@H](O)[C@@H]2O)CC1` (stereo partly drawn) [Example 21, (4-Methylpiperazin-1-yl)-[(2S,3S,4S,5R)-3,4,5,6-tetrahydroxytetrahydropyran-2-yl]methanone]: 7.53%.
Compound `O=[N+]([O-])c1ccc(NCc2cn([C@@H]3O[C@H](CO)[C@@H](O)[C@H](O)[C@H]3O)nn2)c2nonc12` [Example 88, (2R,3S,4S,5R,6R)-2-(Hydroxymethyl)-6-[4-[[(4-nitro-2,1,3-benzoxadiazol-7-yl)amino]methyl]triazol-1-yl]tetrahydropyran-3,4,5-triol] registered an inhibition at 100 µM of 31.4%.
As for `CC(=O)O[C@@H]1OC(CN2CCN(c3ccccc3Cl)CC2)=C[C@H](OC(C)=O)[C@H]1OC(C)=O` [Example 49, [(2S,3R,4S)-2,3-Diacetoxy-6-[[4-(2-chlorophenyl)piperazin-1-yl]methyl]-3,4-dihydro-2H-pyran-4-yl] acetate], at 100 µM the inhibition was 19.9%.
Consider `Cc1ccc(-c2cn([C@H]3C(O)O[C@H](CO)[C@@H](O)[C@@H]3O)nn2)cc1` (stereo partly drawn) [Example 56, (3R,4R,5S,6R)-6-(Hydroxymethyl)-3-[4-(p-tolyl)triazol-1-yl]tetrahydropyran-2,4,5-triol], for which the inhibition at 100 µM is 21.1%.
The compound `O=[N+]([O-])c1ccc(NCCCCCCc2cn([C@@H]3O[C@H](CO)[C@@H](O)[C@H](O)[C@H]3O)nn2)c2nonc12` [Example 92, (2R,3S,4S,5R,6R)-2-(Hydroxymethyl)-6-[4-[6-[(4-nitro-2,1,3-benzoxadiazol-7-yl)amino]hexyl]triazol-1-yl]tetrahydropyran-3,4,5-triol] displayed an inhibition at 100 µM of 23.1%.
As to `CC(=O)O[C@@H]1OC(CN2CCN(c3ccccc3)CC2)=C[C@H](OC(C)=O)[C@H]1OC(C)=O` [Example 45, [(2S,3R,4S)-2,3-Diacetoxy-6-[(4-phenylpiperazin-1-yl)methyl]-3,4-dihydro-2H-pyran-4-yl] acetate], the inhibition at 100 µM amounted to 29.3%.
With `CCN1CCN(C(=O)[C@H]2OC(O)[C@H](O)[C@@H](O)[C@@H]2O)CC1` (stereo partly drawn) [Example 22, (4-Ethylpiperazin-1-yl)-[(2S,3S,4S,5R)-3,4,5,6-tetrahydroxytetrahydropyran-2-yl]methanone], the inhibition at 100 µM was found to be 11.4%.
On to `CC(=O)O[C@@H]1O[C@H](C(=O)N2CCN(C)CC2)[C@@H](OC(C)=O)[C@H](OC(C)=O)[C@H]1OC(C)=O` [Example 1, [(2S,3R,4S,5S,6S)-2,3,5-Triacetoxy-6-(4-methylpiperazine-1-carbonyl)tetrahydropyran-4-yl] acetate], for which at 100 µM the inhibition was 6.32%.
As to `CC(=O)O[C@@H]1O[C@H](C(=O)N2CCN(c3ccccc3)CC2)[C@@H](OC(C)=O)[C@H](OC(C)=O)[C@H]1OC(C)=O` [Example 12, [(2S,3R,4S,5S,6S)-2,3,5-Triacetoxy-6-(4-phenylpiperazine-1-carbonyl)tetrahydropyran-4-yl] acetate], the inhibition at 100 µM amounted to 5.43%.
Then `COc1ccc(N2CCN(C(=O)[C@H]3OC(O)[C@H](O)[C@@H](O)[C@@H]3O)CC2)cc1` (stereo partly drawn) [Example 37, [4-(4-Methoxyphenyl)piperazin-1-yl]-[(2S,3S,4S,5R)-3,4,5,6-tetrahydroxytetrahydropyran-2-yl]methanone], with 6.88%.
Turning to `CCCCCc1cn([C@H]2C(O)O[C@H](CO)[C@@H](O)[C@@H]2O)nn1` (stereo partly drawn) [Example 65, (3R,4R,5S,6R)-6-(Hydroxymethyl)-3-(4-pentyltriazol-1-yl)tetrahydropyran-2,4,5-triol], the inhibition at 100 µM was 7.79%.
`O=[N+]([O-])c1ccc(NCc2cn([C@H]3C(O)O[C@H](CO)[C@@H](O)[C@@H]3O)nn2)c2nonc12` (stereo partly drawn) [Example 63, (3R,4R,5S,6R)-6-(Hydroxymethyl)-3-[4-[[(4-nitro-2,1,3-benzoxadiazol-7-yl)amino]methyl]triazol-1-yl]tetrahydropyran-2,4,5-triol] yielded an inhibition at 100 µM of 37.6%.
Turning to `O=C([C@H]1OC(O)[C@H](O)[C@@H](O)[C@@H]1O)N1CCN(c2ccc(Cl)cc2)CC1` (stereo partly drawn) [Example 34, [4-(4-Chlorophenyl)piperazin-1-yl]-[(2S,3S,4S,5R)-3,4,5,6-tetrahydroxytetrahydropyran-2-yl]methanone], the inhibition at 100 µM amounted to 20.5%.
Then `OC[C@H]1OC(O)[C@H](n2cc(-c3ccccc3)nn2)[C@@H](O)[C@@H]1O` (stereo partly drawn) [Example 55, (3R,4R,5S,6R)-6-(Hydroxymethyl)-3-(4-phenyltriazol-1-yl)tetrahydropyran-2,4,5-triol], with 12.4%.
For the compound `Cc1ccc(-c2nc(C)c(-c3cn([C@H]4C(O)O[C@H](CO)[C@@H](O)[C@@H]4O)nn3)c(Cl)n2)cc1` (stereo partly drawn) [Example 61, (3R,4R,5S,6R)-3-[4-[4-Chloro-6-methyl-2-(p-tolyl)pyrimidin-5-yl]triazol-1-yl]-6-(hydroxymethyl)tetrahydropyran-2,4,5-triol], the inhibition at 100 µM amounted to 9.42%.
`O=[N+]([O-])c1ccc(CCCCCCCc2cn([C@H]3C(O)O[C@H](CO)[C@@H](O)[C@@H]3O)nn2)c2nonc12` (stereo partly drawn) [Example 67, (3R,4R,5S,6R)-6-(Hydroxymethyl)-3-[4-[7-(4-nitro-2,1,3-benzoxadiazol-7-yl)heptyl]triazol-1-yl]tetrahydropyran-2,4,5-triol] gave an inhibition at 100 µM of 25.8%.
Consider `CC(C)(C)N1CCN(C(=O)[C@H]2OC(O)[C@H](O)[C@@H](O)[C@@H]2O)CC1` (stereo partly drawn) [Example 27, (4-tert-Butylpiperazin-1-yl)-[(2S,3S,4S,5R)-3,4,5,6-tetrahydroxytetrahydropyran-2-yl]methanone], for which testing at 100 µM gave an inhibition of 13.1%.
Take `CN(C)c1cccc2c(S(=O)(=O)NCc3cn([C@H]4C(O)O[C@H](CO)[C@@H](O)[C@@H]4O)nn3)cccc12` (stereo partly drawn) [Example 54, 5-(Dimethylamino)-N-[[1-[(3R,4R,5S,6R)-2,4,5-trihydroxy-6-(hydroxymethyl)tetrahydropyran-3-yl]triazol-4-yl]methyl]naphthalene-1-sulfonamide]: at 100 µM the inhibition was 10.5%.
The same measure for `O=[N+]([O-])c1ccc(NCc2cn(C[C@H]3OC(O)[C@H](O)[C@@H](O)[C@@H]3O)nn2)c2nonc12` (stereo partly drawn) [Example 75, (3R,4S,5S,6R)-6-[[4-[[(4-Nitro-2,1,3-benzoxadiazol-7-yl)amino]methyl]triazol-1-yl]methyl]tetrahydropyran-2,3,4,5-tetrol]: 31.2%.
